Measured values: ChEMBL document CHEMBL1212791 (Antimicrob Agents Chemother, 2010)

Legend:
Type in all cases: ADME, organism-based
[1] = Terminal disposition rate in liver transplant patient with end-stage liver disease at 200 mg/kg, po bid; set-up: dose 200 mg/kg, route oral; details: human, in vivo, read-out: Activity (converted)
[2] = Terminal half life in liver transplant patient with end-stage liver disease at 200 mg/kg, po bid; set-up: dose 200 mg/kg, route oral; details: human, in vivo, read-out: beta t1/2 (converted)
[3] = Tmax in liver transplant patient with end-stage liver disease at 200 mg/kg, po bid; set-up: dose 200 mg/kg, route oral; details: human, in vivo
[4] = Cmax in liver transplant patient with end-stage liver disease at 200 mg/kg, po bid; set-up: dose 200 mg/kg, route oral; details: human, in vivo
Homo sapiens [5] = test: Clast in liver transplant patient with end-stage liver disease at 200 mg/kg, po bid; set-up: dose 200 mg/kg, route oral; details: in vivo
[6] = AUC (0 to infinity) in liver transplant patient with end-stage liver disease at 200 mg/kg, po bid; set-up: time infinity, dose 200 mg/kg, route oral; details: human, in vivo
Homo sapiens [7] = test: AUMC (0 to infinity) in liver transplant patient with end-stage liver disease at 200 mg/kg, po bid; set-up: dose 200 mg/kg, route oral; details: in vivo
[8] = Volume of distribution at steady state with respect to bioavailability in liver transplant patient with end-stage liver disease at 200 mg/kg, po bid; details: human, in vivo, read-out: Vc/F
[9] = Mean residence time in liver transplant patient with end-stage liver disease at 200 mg/kg, po bid; set-up: dose 200 mg/kg, route oral; details: human, in vivo
Homo sapiens [10] = test: Plasma concentration in liver transplant patient with end-stage liver disease at 200 mg/kg, po bid; set-up: dose 200 mg/kg, route oral; details: in vivo

SMILES: C[C@@H](c1ncncc1F)[C@](O)(Cn1cncn1)c1ccc(F)cc1F [VORICONAZOLE]
- k el [1]: 1.67e-05 s⁻¹
- half-life [2]: 900 min
- Tmax [3]: 1.8 h
- Cmax [4]: 2900 ng/mL
- Clast (Homo sapiens [5]): 1.6 µg/mL
- AUC(0-inf) [6]: 25900 ng·h/mL
- AUMC (Homo sapiens [7]): 2557.5 hr.hr.ug/ml
- Vd/F [8]: 94.5 L
- MRT [9]: 78.2 h
- Cp (Homo sapiens [10]): 1 µg/mL
